According to PubChem BioAssay AID248 (DTP/NCI, 2004):
“And” between values parts separate entries of the source, which are not always exact repeats. Identical values can stand only once. Toxic doses and inconclusive results are not listed. Cut-off read from the data, not from the text of the source: active = T/C of 150% or more; inactive = T/C below 125%.

System: L1210 leukemia ip in BDF1 mice, survival T/C
Experiment: NCI In Vivo Anticancer Drug Screen. Data for tumor model L1210 Leukemia (intraperitoneal) in B6D2F1 (BDF1) mice
Conditions: endpoint: mean survival time, higher = longer survival
Method in brief: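 Tumor was transplanted into mice, which were then dosed with test compound or vehicle alone. Survival was recorded for each group, and the treated figure was expressed relative to the control figure.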

[1] = dose: 6.25 mg/kg/injection, schedule: Q04DX002 (ip), vehicle: saline with Tween-80
[2] = dose: 12.5 mg/kg/injection, schedule: Q04DX002 (ip), vehicle: saline with Tween-80
[3] = dose: 25.0 mg/kg/injection, schedule: Q04DX002 (ip), vehicle: saline with Tween-80
[4] = dose: 100.0 mg/kg/injection, schedule: Q01DX009 (ip), vehicle: saline with Tween-80
[5] = dose: 50.0 mg/kg/injection, schedule: Q01DX001 (ip), vehicle: carboxymethylcellulose (CMC)
[6] = dose: 100.0 mg/kg/injection, schedule: Q01DX001 (ip), vehicle: carboxymethylcellulose (CMC)
[7] = dose: 100.0 mg/kg/injection, schedule: Q01DX009 (ip), vehicle: Klucel (hydroxypropylcellulose) (HPC)
[8] = dose: 100.0 mg/kg/injection, schedule: Q04DX003 (ip), vehicle: Klucel (hydroxypropylcellulose) (HPC)
[9] = dose: 200.0 mg/kg/injection, schedule: Q01DX001 (ip), vehicle: carboxymethylcellulose (CMC)
[10] = dose: 200.0 mg/kg/injection, schedule: Q01DX009 (ip), vehicle: Klucel (hydroxypropylcellulose) (HPC)
[11] = dose: 200.0 mg/kg/injection, schedule: Q04DX003 (ip), vehicle: Klucel (hydroxypropylcellulose) (HPC)
[12] = dose: 400.0 mg/kg/injection, schedule: Q01DX009 (ip), vehicle: Klucel (hydroxypropylcellulose) (HPC)
[13] = dose: 400.0 mg/kg/injection, schedule: Q04DX003 (ip), vehicle: Klucel (hydroxypropylcellulose) (HPC)
[14] = dose: 100.0 mg/kg/injection, schedule: Q04DX003 (ip), vehicle: saline with Tween-80
[15] = dose: 200.0 mg/kg/injection, schedule: Q01DX009 (ip), vehicle: saline with Tween-80
[16] = dose: 200.0 mg/kg/injection, schedule: Q04DX003 (ip), vehicle: saline with Tween-80
[17] = dose: 400.0 mg/kg/injection, schedule: Q01DX009 (ip), vehicle: saline with Tween-80
[18] = dose: 400.0 mg/kg/injection, schedule: Q04DX003 (ip), vehicle: saline with Tween-80
[19] = dose: 50.0 mg/kg/injection, schedule: Q01DX001 (ip), vehicle: saline
[20] = dose: 100.0 mg/kg/injection, schedule: Q01DX001 (ip), vehicle: saline
[21] = dose: 200.0 mg/kg/injection, schedule: Q01DX001 (ip), vehicle: saline
[22] = dose: 400.0 mg/kg/injection, schedule: Q01DX001 (ip), vehicle: saline

Measured: T/C

CCN(CC)CCCNCC(Cc1ccccc1)c1ccccc1 (stereo not given)
inactive: dose: 100.0 mg/kg/injection, schedule: Q04DX002 (ip), vehicle: saline 92 % of control | dose: 200.0 mg/kg/injection, schedule: Q04DX002 (ip), vehicle: saline 99 % of control

CC(C)(O)C(Cc1ccccc1)c1ccccc1 (stereo not given)
inactive: [1] 91 % of control | [2] 98 % of control | [3] 102 % of control

O=C(O)C(Br)C(Br)C(=O)Nc1cccc2ccccc12 (stereo not given)
inactive: dose: 25.0 mg/kg/injection, schedule: Q01DX009 (ip), vehicle: saline with Tween-80 97 % of control | dose: 50.0 mg/kg/injection, schedule: Q01DX009 (ip), vehicle: saline with Tween-80 96 % of control | [4] 96 % of control and 98 % of control

COC1=C(NC(C)(C)C)C(=O)C(OC)=C(NC(C)(C)C)C1=O
inactive: [5] 103 % of control | [6] 97 % of control | [7] 109 % of control | [8] 98 % of control | [9] 109 % of control | [10] 95 % of control | [11] 96 % of control | dose: 400.0 mg/kg/injection, schedule: Q01DX001 (ip), vehicle: carboxymethylcellulose (CMC) 109 % of control | [12] 106 % of control | [13] 100 % of control

CC(C)(C)c1cc(/C=N/NC(=O)COCC(=O)N/N=C/c2cc(C(C)(C)C)c(O)c(C(C)(C)C)c2)cc(C(C)(C)C)c1O
inactive: [7] 95 % of control | [10] 103 % of control | [12] 92 % of control

N#CCCN(Cc1ccncc1)CN1C(=O)c2ccccc2C1=O
inactive: [7] 101 % of control | [10] 87 % of control | [12] 96 % of control

CC(C)CCCC(C)C1CCC2C3CC=C4C=C(OC(=O)c5ccccc5)CCC4(C)C3CCC12C (stereo not given)
inactive: [4] 90 % of control | [14] 97 % of control | [15] 87 % of control | [16] 95 % of control | [17] 95 % of control | [18] 87 % of control

Clc1ncnc2scnc12
inactive: [5] 102 % of control | [6] 91 % of control | [9] 98 % of control

CCOC(=O)C(C(=N)C#N)C(C)=O (stereo not given)
inactive: dose: 6.25 mg/kg/injection, schedule: Q04DX003 (ip), vehicle: saline with Tween-80 98 % of control | dose: 12.5 mg/kg/injection, schedule: Q04DX003 (ip), vehicle: saline with Tween-80 98 % of control | dose: 25.0 mg/kg/injection, schedule: Q04DX003 (ip), vehicle: saline with Tween-80 97 % of control | dose: 50.0 mg/kg/injection, schedule: Q04DX003 (ip), vehicle: saline with Tween-80 88 % of control | [14] 103 % of control

OC1c2ccccc2-c2ccc(N(Cc3ccccc3)Cc3ccccc3)cc21 (stereo not given)
inactive: [16] 87 % of control

CCOC(=O)C1CCN(S(=O)(=O)c2ccc(C)cc2)c2cc(Cl)ccc2C1=O (stereo not given)
inactive: [7] 93 % of control | [8] 96 % of control | [10] 93 % of control | [11] 93 % of control | [12] 101 % of control | [13] 94 % of control

C=CCCCCCCCCC(=O)NCC1CCCCO1 (stereo not given)
inactive: [4] 94 % of control | [15] 97 % of control | [17] 101 % of control

CCOc1ccc(/C=N/NC(=O)c2ccccc2N)cc1OC
inactive: dose: 100.0 mg/kg/injection, schedule: Q04DX002 (ip), vehicle: Klucel (hydroxypropylcellulose) (HPC) 97 % of control | dose: 200.0 mg/kg/injection, schedule: Q04DX002 (ip), vehicle: Klucel (hydroxypropylcellulose) (HPC) 102 % of control | dose: 400.0 mg/kg/injection, schedule: Q04DX002 (ip), vehicle: Klucel (hydroxypropylcellulose) (HPC) 105 % of control

Nc1ncnc2c1ncn2C1SC(CO)C(O)C1O (stereo not given)
inactive: [19] 93 % of control and 103 % of control | [20] 102 % of control and 105 % of control | dose: 100.0 mg/kg/injection, schedule: Q01DX005 (ip), vehicle: saline 108 % of control and 95 % of control | [21] 104 % of control and 100 % of control | dose: 200.0 mg/kg/injection, schedule: Q01DX005 (ip), vehicle: saline 109 % of control and 95 % of control

COc1ccccc1Cl
inactive: [4] 94 % of control | [14] 106 % of control | [15] 86 % of control | [16] 104 % of control | [18] 93 % of control

CCCC(C)(COC(N)=O)COC(N)=O
inactive: [4] 93 % of control | [15] 90 % of control | [17] 109 % of control

O=C(N/N=C/c1ccc(Cl)cc1)c1cccc([N+](=O)[O-])c1
inactive: [7] 94 % of control | [10] 94 % of control | [12] 95 % of control

C=CCNC(=S)NNC(=O)CCCC(=O)NNC(=S)NCC=C
inactive: [19] 90 % of control | [20] 93 % of control | [22] 102 % of control

Cc1cc(CSC2=NCCCN2)c(CSC2=NCCCN2)cc1C
inactive: dose: 6.25 mg/kg/injection, schedule: Q01DX001 (ip), vehicle: saline 96 % of control | dose: 6.25 mg/kg/injection, schedule: Q01DX009 (ip), vehicle: saline 100 % of control and 111 % of control | [1] 94 % of control | dose: 6.25 mg/kg/injection, schedule: Q04DX003 (ip), vehicle: saline 91 % of control | dose: 12.5 mg/kg/injection, schedule: Q01DX001 (ip), vehicle: saline 97 % of control | dose: 12.5 mg/kg/injection, schedule: Q01DX009 (ip), vehicle: saline 102 % of control and 92 % of control | [2] 97 % of control | dose: 12.5 mg/kg/injection, schedule: Q04DX003 (ip), vehicle: saline 90 % of control | dose: 25.0 mg/kg/injection, schedule: Q01DX001 (ip), vehicle: saline 99 % of control and 108 % of control | dose: 25.0 mg/kg/injection, schedule: Q01DX009 (ip), vehicle: saline 96 % of control and 101 % of control | [3] 100 % of control | dose: 25.0 mg/kg/injection, schedule: Q04DX002 (ip), vehicle: saline 87 % of control | dose: 25.0 mg/kg/injection, schedule: Q04DX003 (ip), vehicle: saline 89 % of control | [20] 93 % of control

C=CCNC(=O)C[n+]1cccc(C(=O)NC)c1
inactive: [20] 106 % of control | [21] 103 % of control | [22] 97 % of control

CCOC(=O)CCCCCCCCCCNC(=O)NCc1ccccc1
inactive: dose: 100.0 mg/kg/injection, schedule: Q04DX002 (ip), vehicle: saline with Tween-80 90 % of control | dose: 200.0 mg/kg/injection, schedule: Q04DX002 (ip), vehicle: saline with Tween-80 87 % of control | dose: 400.0 mg/kg/injection, schedule: Q04DX002 (ip), vehicle: saline with Tween-80 97 % of control

CNC(=O)N(c1ccccc1)C1CCCCC1
inactive: dose: 50.0 mg/kg/injection, schedule: Q01DX009 (ip), vehicle: saline 112 % of control | dose: 100.0 mg/kg/injection, schedule: Q01DX009 (ip), vehicle: saline 103 % of control | dose: 100.0 mg/kg/injection, schedule: Q04DX003 (ip), vehicle: saline 104 % of control | dose: 200.0 mg/kg/injection, schedule: Q01DX009 (ip), vehicle: saline 103 % of control | dose: 200.0 mg/kg/injection, schedule: Q04DX003 (ip), vehicle: saline 97 % of control

BrCc1nc2ccccc2[nH]1
inactive: [20] 95 % of control | [21] 101 % of control | [22] 107 % of control

CCC(C)(C)C(=O)Nc1cccc(O)c1
inactive: [14] 92 % of control | [16] 90 % of control | [18] 95 % of control

CC(/C=N/NC(N)=S)=N\N=C(N)N
inactive: dose: 15.0 mg/kg/injection, schedule: Q01DX Z (ip), vehicle: carboxymethylcellulose (CMC) 98 % of control | dose: 30.0 mg/kg/injection, schedule: Q01DX Z (ip), vehicle: carboxymethylcellulose (CMC) 101 % of control | dose: 60.0 mg/kg/injection, schedule: Q01DX Z (ip), vehicle: carboxymethylcellulose (CMC) 98 % of control | dose: 120.0 mg/kg/injection, schedule: Q01DX Z (ip), vehicle: carboxymethylcellulose (CMC) 98 % of control
